These results are taken from patent US7943618B2, “Btk protein kinase inhibitors” (Roche Palo Alto LLC, priority 2007, dated 2011).

Where only a bound is given, the exact number is not on record here.

Series [1] concerns the target T1, Btk enzyme (His-tagged, full-length) (Homo sapiens, UniProt Q06187).
T1 construct: 5-10 nM Btk enzyme (His-tagged, full-length); His
Kind of series: Bruton's Tyrosine Kinase (Btk) Inhibition Assay (33P filtration capture). The format is biochemical. The settings on record: Bruton's tyrosine kinase Assay (Example 34), 100 μM ATP. The text has this:
Bruton's Tyrosine Kinase (Btk) Inhibition Assay
The assay is a capture of radioactive ^33P phosphorylated product through filtration. The interactions of Btk, biotinylated SH2 peptide substrate (Src homology), and ATP lead to phosphorylation of the peptide substrate. Biotinylated product is bound streptavidin sepharose beads. All bound, radiolabeled products are detected by scintillation counter.
Plates assayed are 96-well polypropylene (Greiner) and 96-well 1.2 μm hydrophilic PVDF filter plates (Millipore).
IC50 determinations are calculated from 10 data points per compound utilizing data produced from a standard 96-well plate assay template. One control compound and seven unknown inhibitors were tested on each plate and each plate was run twice. […] The control compound was staurosporine. Background was counted in the absence of peptide substrate. Total activity was determined in the presence of peptide substrate. The following protocol was used to determine Btk inhibition.
1) Sample preparation: The test compounds were diluted at half-log increments in assay buffer (imidazole, glycerol-2-phosphate, EGTA, MnCl2, MgCl2, BSA).
2) Bead preparation • a.) rinse beads by centrifuging at 500 g • b.) reconstitute the beads with PBS and EDTA to produce a 20% bead slurry
3) Pre-incubate reaction mix without substrate (assay buffer, DTT, ATP, ^33P ATP) and mix with substrate (assay buffer, DTT, ATP, ^33P ATP, peptide substrate) 30° C. for 15 min.
4) To start assay, pre-incubate 10 μL Btk in enzyme buffer (imidazole, glycerol-2-phosphate, BSA) and 10 μL of test compounds for 10 min at RT.
5) Add 30 μL reaction mixture without or with substrate to Btk and compounds.
6) Incubate 50 μL total assay mix for 30 min at 30° C.
7) Transfer 40 μL of assay to 150 μL bead slurry in filter plate to stop reaction.
8) Wash filter plate after 30 min, with following steps • a. 3×250 μL NaCl • b. 3×250 μL NaCl containing 1% phosphoric acid • c. 1×250 μL H2O
9) Dry plate for 1 h at 65° C. or overnight at RT
10) Add 50 μL microscint-20 and count ^33P cpm on scintillation counter.
Calculate percent activity from raw data in cpm percent activity=(sample−bkg)/(total activity−bkg)×100
Calculate IC50 from percent activity, using one-site dose response sigmoidal model y=A+((B−A)/(1+((x/C)^D))))

T1 sequence (Q06187 whole entry): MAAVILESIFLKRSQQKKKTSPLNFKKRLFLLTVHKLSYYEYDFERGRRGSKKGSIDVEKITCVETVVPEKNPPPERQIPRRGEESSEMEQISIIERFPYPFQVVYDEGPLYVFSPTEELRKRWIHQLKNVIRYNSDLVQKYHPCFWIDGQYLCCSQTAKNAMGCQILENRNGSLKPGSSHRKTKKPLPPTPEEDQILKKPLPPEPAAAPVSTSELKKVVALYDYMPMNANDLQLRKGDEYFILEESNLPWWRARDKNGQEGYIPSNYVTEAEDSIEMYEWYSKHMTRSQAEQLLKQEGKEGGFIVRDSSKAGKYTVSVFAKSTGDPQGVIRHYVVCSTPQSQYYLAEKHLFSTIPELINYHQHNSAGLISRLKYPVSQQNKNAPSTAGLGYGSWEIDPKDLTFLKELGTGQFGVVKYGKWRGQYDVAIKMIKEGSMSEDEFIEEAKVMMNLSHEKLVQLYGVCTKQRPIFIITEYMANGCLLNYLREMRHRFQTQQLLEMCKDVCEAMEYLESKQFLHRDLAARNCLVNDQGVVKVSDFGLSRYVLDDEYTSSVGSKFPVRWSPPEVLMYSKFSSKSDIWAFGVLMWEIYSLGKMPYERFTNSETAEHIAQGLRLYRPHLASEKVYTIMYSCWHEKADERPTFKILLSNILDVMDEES

Regarding `Cc1c(NC(=O)c2ccc(C(C)(C)C)cc2)cccc1-c1cc(Nc2ccc(C(=O)N3CCOCC3)cn2)c(=O)n(C)n1` [Compound I-1, 4-tert-Butyl-N-(2-methyl-3-{1-methyl-5-[5-(morpholine-4-carbonyl)-pyridin-2-ylamino]-1,6-oxo-dihydro-pyridazin-3-yl}-phenyl)-benzamide], the melting point – broadly, the temperature of the solid-liquid transition – was 148 to 150 °C. In addition, in series [1] (Table I pyridazinones), the IC50 – broadly, the concentration needed to halve the response being measured – is under 10 nM.
The like results for `Cc1c(NC(=O)c2ccc(C(C)(C)C)cc2)cccc1-c1cc(Nc2ccc(C(=O)N3CCN(C)CC3)cn2)c(=O)n(C)n1` [Compound I-2] were, in that order, 158 to 160 °C and 14 nM.
The like results for `Cc1c(NC(=O)c2ccc(C(C)(C)C)cc2)cccc1-c1cc(Nc2ccccn2)c(=O)n(C)n1` [Compound I-3] were, in that order, 248.5 to 249.3 °C and 94 nM.
The like results for `Cc1c(NC(=O)c2ccc(C(C)(C)C)cc2)cccc1-c1cc(Nc2ccncn2)c(=O)n(C)n1` [Compound I-4] were, in that order, 249 to 250 °C and 208 nM.
`Cc1c(NC(=O)c2ccc(C(C)(C)O)cc2)cccc1-c1cc(Nc2ccc(C(=O)N3CCN(C)CC3)cn2)c(=O)n(C)n1` [Compound I-5] showed a melting point of 167.5 to 168.5 °C. In series [1] (Table I pyridazinones), the IC50 stood at 122 nM.
Taken in the same sequence, the figures for `Cc1c(NC(=O)N2CCN(C(C)(C)C)CC2)cccc1-c1cc(Nc2ccc(C(=O)N3CCOCC3)cn2)c(=O)n(C)n1` [Compound I-6, 4-tert-Butyl-piperazine-1-carboxylic acid (2-methyl-3-{1-methyl-5-[5-(morpholine-4-carbonyl) -pyridin-2-ylamino]-6-oxo-1,6-dihydro-pyridazin-3-yl}-phenyl)-amide] were 166 to 169 °C and 15500 nM.
The like results for `COc1cc(C(C)(C)C)ccc1C(=O)Nc1cccc(-c2cc(Nc3ccc(C(=O)N4CCOCC4)cn3)c(=O)n(C)n2)c1C` [Compound I-7] were, in that order, 156.5 to 157 °C and 272 nM.
`Cc1c(NC(=O)N2CC(OC(C)(C)C)C2)cccc1-c1cc(Nc2ccc(C(=O)N3CCOCC3)cn2)c(=O)n(C)n1` [Compound I-10, 3-tert-Butoxy-azetidine-1-carboxylic acid(2-methyl-3-{1-methyl-5-[5-(morpholine-4-carbonyl) -pyridin-2-ylamino]-6-oxo-1,6-dihydro-pyridazin-3-yl}-phenyl)-amide]: the melting point lay within 171 to 172 °C. Further, 228 nM corresponded to half-maximal inhibition in series [1] (Table I pyridazinones) (IC50).
The like results for `Cc1c(NC(=O)c2ccc(C(C)(C)C)cc2)cccc1-c1cc(Nc2ccnc(N3CCN(C)CC3)n2)c(=O)n(C)n1` [Compound I-11] were, in that order, 220 to 222 °C and 78 nM.
Taken in the same sequence, the figures for `CSc1nccc(Nc2cc(-c3cccc(NC(=O)c4ccc(C(C)(C)C)cc4)c3C)nn(C)c2=O)n1` [Compound I-12] were 224 to 225 °C and 51 nM.
Taken in the same sequence, the figures for `Cc1c(NC(=O)c2ccc(C(C)(C)C)cc2)cccc1-c1cc(Nc2ccnc(N3CCOCC3)n2)c(=O)n(C)n1` [Compound I-14] were 211 to 213 °C and 249 nM.
In turn, `Cn1nc(-c2cccc(NC(=O)c3ccc(C(C)(C)O)cc3)c2)cc(Nc2ccc(C(=O)N3CCOCC3)cn2)c1=O` [Compound I-16] displayed a melting point of 172 to 173 °C. This molecule also displayed an IC50 in series [1] (Table I pyridazinones) of 120 nM.
`CNC(=O)Nc1cc(-c2cccc(NC(=O)c3ccc(C(C)(C)C)cc3)c2C)cn(C)c1=O` [II-4, 4-tert-Butyl-N-{2-methyl-3-[1-methyl-5-(3-methyl-ureido)-6-oxo-1,6-dihydro-pyridin-3-yl]-phenyl}-benzamide] had a melting point of 262 to 264 °C.
For the molecule `Cn1cc(-c2cccc(NC(=O)c3ccc(C4(C(F)F)CC4)cc3)c2CO)cc(Nc2ccc(C(=O)N3CCOCC3)cn2)c1=O` [II-72, 4-(1-Difluoromethyl-cyclopropyl)-N-(2-hydroxymethyl-3-{1-methyl-5-[5-(morpholine-4-carbonyl)-pyridin-2-ylamino]-6-oxo-1,6-dihydro-pyridin-3-yl}-phenyl)-benzamide], the IC50 in series [1] (Table II pyridinones) is under 10 nM.
Still for that read-out and setting: the same measure for `Cn1cc(-c2cccc(NC(=O)c3ccc(C(Cl)(Cl)Cl)cc3)c2CO)cc(Nc2ccc(C(=O)N3CCOCC3)cn2)c1=O` [II-74]: 50 nM; for `Cn1cc(-c2cccc(NC(=O)c3ccc(C4(Cl)CC4)cc3)c2CO)cc(Nc2ccc(C(=O)N3CCOCC3)cn2)c1=O` [II-75]: under 10 nM; for `Cn1cc(-c2cccc(NC(=O)c3ccc([Si](C)(C)C)cc3)c2CO)cc(Nc2ccc(C(=O)N3CCOCC3)cn2)c1=O` [II-76]: 40 nM.
On the same count and under the same terms, the figure for `CCNC(=O)Nc1cc(-c2cccc(NC(=O)c3ccc(C4CC4)cc3)c2CO)cn(C)c1=O` [II-77] is 40 nM; for `Cn1cc(-c2cccc(NC(=O)c3ccc(C4CC4)cc3)c2CO)cc(NC(=O)NCCc2ccccn2)c1=O` [II-78] it is 214 nM.
The same measure, in the same setting: the same measure for `Cn1cc(-c2cccc(NC(=O)c3ccc(C4CC4)cc3)c2CO)cc(NC(=O)NCCc2cccnc2)c1=O` [II-79]: 160 nM; for `CN(C)CCCNC(=O)Nc1cc(-c2cccc(NC(=O)c3ccc(C4CC4)cc3)c2CO)cn(C)c1=O` [II-80]: 43 nM; for `Cn1cc(-c2cccc(NC(=O)c3ccc(C(C)(C)C(F)(F)F)cc3)c2CO)cc(Nc2ccc(C(=O)N3CCNCC3)cn2)c1=O` [II-81, N-(2-Hydroxymethyl-3-{1-methyl-6-oxo-5-[5-(piperazine-1-carbonyl)-pyridin-2-ylamino]-1,6-dihydro-pyridin-3-yl}-phenyl)4-(2,2,2-trifluoro-1,1-dimethyl-ethyl)-benzamide]: under 10 nM.
Regarding `Cn1cc(-c2cccc(NC(=O)c3ccc(C4CC4)cc3)c2CO)cc(NC(=O)NCCCN2CCOCC2)c1=O` [II-83], in series [1] (Table II pyridinones), 54 nM corresponded to half-maximal inhibition (IC50).
In turn, `Cn1cc(-c2cccc(NC(=O)c3ccc(C4CC4)cc3)c2CO)cc(NC(=O)NCC2CCCO2)c1=O` (centres unmarked) [II-84] showed an IC50 in series [1] (Table II pyridinones) of 60 nM. The IC50 values of the last two molecules are within 1.5-fold of each other.
`CCC(O)CNC(=O)Nc1cc(-c2cccc(NC(=O)c3ccc(C4CC4)cc3)c2CO)cn(C)c1=O` (centres unmarked) [II-85]: the IC50 in series [1] (Table II pyridinones) worked out at 46 nM.
On the same count and under the same terms, the figure for `CC(O)CNC(=O)Nc1cc(-c2cccc(NC(=O)c3ccc(C4CC4)cc3)c2CO)cn(C)c1=O` (centres unmarked) [II-86] is 68 nM; for `CC(C)n1nc(Nc2cc(-c3cccc(NC(=O)c4ccc(C5CC5)cc4)c3CO)cn(C)c2=O)ccc1=O` [II-88] it is 140 nM.
Regarding `Cn1cc(-c2cccc(NC(=O)c3ccc(S(F)(F)(F)(F)F)cc3)c2CO)cc(Nc2ccc(C(=O)N3CCOCC3)cn2)c1=O` [II-89], the IC50 in series [1] (Table II pyridinones) was under 10 nM.
The molecule `CCOc1cccc(Nc2cc(-c3cccc(NC(=O)c4ccc(C5CC5)cc4)c3CO)cn(C)c2=O)n1` [II-90] yielded an IC50 in series [1] (Table II pyridinones) of 81 nM.
Same read-out and setting: the same measure for `CCn1nc(Nc2cc(-c3cccc(NC(=O)c4ccc(C5CC5)cc4)c3CO)cn(C)c2=O)ccc1=O` [II-91]: 66 nM.
In the case of `Cn1cc(-c2cccc(NC(=O)c3ccc(C4CC4)cc3)c2CO)cc(Nc2ccc(=O)n(Cc3ccccc3)n2)c1=O` [II-93], in series [1] (Table II pyridinones), the IC50 turned out to be 298 nM.
Same read-out and setting: the figure for `Cc1ccc(Nc2cc(-c3cccc(NC(=O)c4ccc(C5CC5)cc4)c3CO)cn(C)c2=O)nn1` [II-94] is 24 nM; for `Cn1cc(-c2cccc(NC(=O)c3ccc(C4CC4)cc3)c2CO)cc(Nc2cccnn2)c1=O` [II-95] it is 20 nM; for `Cn1cc(-c2cccc(NC(=O)c3ccc(C(C)(C)C#N)cc3)c2CO)cc(Nc2ccc(C(=O)N3CCOCC3)cn2)c1=O` [II-96] it is under 10 nM.
The same measure, in the same setting: the figure for `Cn1cc(-c2cccc(NC(=O)c3ccc(N4CCCCC4)cc3)c2CO)cc(Nc2ccc(C(=O)N3CCOCC3)cn2)c1=O` [II-97] is 114 nM; for `Cn1cc(-c2cccc(NC(=O)c3ccc(C4CC4)cc3)c2CO)cc(Nc2cnccn2)c1=O` [II-98] it is 90 nM.
On the same count and under the same terms, the same measure for `Cn1cc(-c2cccc(NC(=O)c3ccc(C4CC4)cc3)c2CO)cc(Nc2ccc(C(=O)N3CCCC3)cn2)c1=O` [II-99]: 11 nM; for `Cn1cc(-c2cccc(NC(=O)c3ccc(C4CC4)cc3)c2CO)cc(Nc2ccc(C(=O)N3CC(F)(F)C3)cn2)c1=O` [II-100]: 31 nM.
In the case of `Cn1cc(-c2cccc(NC(=O)c3ccc(C4CC4)cc3)c2CO)cc(Nc2ccc(C(=O)N3CCC3)cn2)c1=O` [II-101], the IC50 in series [1] (Table II pyridinones) was under 10 nM.
Consider `Cn1cc(-c2cccc(NC(=O)N3Cc4ccccc4C3)c2CO)cc(Nc2ccc(C(=O)N3CCOCC3)cn2)c1=O` [II-102], for which the IC50 in series [1] (Table II pyridinones) is under 10 nM.
Same read-out and setting: the figure for `Cn1cc(-c2cccc(NC(=O)c3ccc(C4CC4)cc3)c2CO)cc(Nc2ccc(N3CCOCC3)nn2)c1=O` [II-103] is 14 nM.
